Laboratory results reported in US8716475B2, “2-aminopyrimidine modulators of the histamine H4 receptor” (Janssen Pharmaceutica NV, priority 2007, dated 2014).

target: T1, human H4 receptor (Homo sapiens, UniProt Q9H3N8); test: Binding Assay on Recombinant Human Histamine H4 Receptor; settings: Table 1; [3H] histamine competition binding, membranes of SK-N-MC cells transfected with human H4 receptor; average of results
T1 construct: expressed in transfected cells
Protocol: Binding Assay on Recombinant Human Histamine H4 Receptor.
Cell pellets from SK-N-MC cells stably or transiently transfected with human H4 receptor were used for the binding assays. Cell pellets were homogenized in 50 mM Tris/5 mM EDTA buffer and supernatants from an 800g spin were collected and recentrifuged at 30,000g for 30 min. Pellets were rehomogenized in 50 mM Tris/5 mM EDTA buffer. […] Compounds were tested in free base, hydrochloride salt, or trifluoroacetic acid form. Nonspecific binding was defined with 100 μM cold histamine. […] Membranes were harvested by rapid filtration using the 96 well Brandel system or a cell harvester using a Whatman GF/C filter or filter plates treated with 0.5% polyethylenimine (PEI), and washed 4 times with ice-cold 50 mM Tris/5 mM EDTA buffer. Filters were then dried, mixed with scintillant and radioactive counts were determined. […] Data marked with an asterisk (*) were obtained by the cell harvester method. Where activity is shown as greater than (>) a particular value, the value is the highest concentration tested.

T1 sequence (Q9H3N8 whole entry): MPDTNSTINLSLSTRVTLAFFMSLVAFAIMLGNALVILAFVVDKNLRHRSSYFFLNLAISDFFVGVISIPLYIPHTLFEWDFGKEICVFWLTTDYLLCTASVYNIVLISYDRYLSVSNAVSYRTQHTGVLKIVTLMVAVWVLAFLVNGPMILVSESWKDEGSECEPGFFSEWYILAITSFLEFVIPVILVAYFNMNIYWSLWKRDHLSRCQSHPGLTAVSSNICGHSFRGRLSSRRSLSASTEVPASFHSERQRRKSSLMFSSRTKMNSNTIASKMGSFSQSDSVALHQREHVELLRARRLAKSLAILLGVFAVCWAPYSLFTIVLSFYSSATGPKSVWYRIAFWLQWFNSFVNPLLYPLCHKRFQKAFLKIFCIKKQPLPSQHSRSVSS

Compound | Ki [nM]
4-(4-piperazin-1-yl)-5,6,7,8-tetrahydro-quinazolin-2-ylamine [Example 67] | 17
Nc1nc(C2CCCC2)cc(N2CCNCC2)n1 [Example 1, 4-Cyclopentyl-6-piperazin-1-yl-pyrimidin-2-ylamine] | 1
CN1CCN(c2cc(C3CCCC3)nc(N)n2)CC1 [Example 2, 4-Cyclopentyl-6-(4-methyl-piperazin-1-yl)-pyrimidin-2-ylamine] | 1
Nc1nc(C2CCCC2)cc(N2CCC[C@@H](N)C2)n1 [Example 3, (R)-4-(3-Amino-piperidin-1-yl)-6-cyclopentyl-pyrimidin-2-ylamine] | 257
CN[C@@H]1CCN(c2cc(C3CCCC3)nc(N)n2)C1 [Example 4, (R)-4-Cyclopentyl-6-(3-methylamino-pyrrolidin-1-yl)-pyrimidin-2-ylamine] | 1
CNC1CN(c2cc(C3CCCC3)nc(N)n2)CC1O (stereo not drawn) [Example 5, trans-1-(2-Amino-6-cyclopentyl-pyrimidin-4-yl)-4-methylamino-pyrrolidin-3-ol] | 30
Nc1nc(C2CCCC2)cc(N2CC3CCNC3C2)n1 (stereo not drawn) [Example 6, 4-Cyclopentyl-6-(cis-hexahydro-pyrrolo[3,4-b]pyrrol-5-yl)-pyrimidin-2-ylamine] | 6
Nc1nc(C2CCCC2)cc(N2CC3CCCNC3C2)n1 (stereo not drawn) [Example 7, 4-Cyclopentyl-6-(cis-octahydro-pyrrolo[3,4-b]pyridin-6-yl)-pyrimidin-2-ylamine] | 2
CC(C)c1cc(N2CCNCC2)nc(N)n1 [Example 8, 4-Isopropyl-6-piperazin-1-yl-pyrimidin-2-ylamine] | 3
CC(C)c1cc(N2CCC[C@@H](N)C2)nc(N)n1 [Example 9, (R)-4-(3-Amino-piperidin-1-yl)-6-isopropyl-pyrimidin-2-ylamine] | 820
CC(C)c1cc(N2CCC[C@H](N)C2)nc(N)n1 [Example 10, (S)-4-(3-Amino-piperidin-1-yl)-6-isopropyl-pyrimidin-2-ylamine] | 159
CN[C@@H]1CCN(c2cc(C(C)C)nc(N)n2)C1 [Example 11, (R)-4-Isopropyl-6-(3-methylamino-pyrrolidin-1-yl)-pyrimidin-2-ylamine] | 12
CC(C)c1cc(N2CC[C@@H](N)C2)nc(N)n1 [Example 12, (R)-4-(3-Amino-pyrrolidin-1-yl)-6-isopropyl-pyrimidin-2-ylamine] | 18
CNC1CN(c2cc(C(C)C)nc(N)n2)CC1O (stereo not drawn) [Example 13, trans-1-(2-Amino-6-isopropyl-pyrimidin-4-yl)-4-methylamino-pyrrolidin-3-ol] | 631
CC(C)c1cc(N2C[C@@H]3C[C@H]2CN3)nc(N)n1 [Example 14, (S,S)-4-(2,5-Diaza-bicyclo[2.2.1]hept-2-yl)-6-isopropyl-pyrimidin-2-ylamine] | 673
CC(C)c1cc(N2C[C@H]3C[C@@H]2CN3)nc(N)n1 [Example 15, (R,R)-4-(2,5-Diaza-bicyclo[2.2.1]hept-2-yl)-6-isopropyl-pyrimidin-2-ylamine] | 692

Compound | Ki [nM]
CC(C)c1cc(N2CC3CCNC3C2)nc(N)n1 (stereo not drawn) [Example 16, 4-(cis-Hexahydro-pyrrolo[3,4-b]pyrrol-5-yl)-6-isopropyl-pyrimidin-2-ylamine] | 65
CC(C)c1cc(N2C[C@H]3CCN[C@H]3C2)nc(N)n1 [Example 17, (R,R)-4-(Hexahydro-pyrrolo[3,4-b]pyrrol-5-yl)-6-isopropyl-pyrimidin-2-ylamine] | 59
CC(C)c1cc(N2C[C@H]3CN(C)C[C@H]3C2)nc(N)n1 [Example 18, 4-Isopropyl-6-(cis-5-methyl-hexahydro-pyrrolo[3,4-c]pyrrol-2-yl)-pyrimidin-2-ylamine] | 17
CC(C)c1cc(N2CC3CCCNC3C2)nc(N)n1 (stereo not drawn) [Example 19, 4-Isopropyl-6-(cis-octahydro-pyrrolo[3,4-b]pyridin-6-yl)-pyrimidin-2-ylamine] | 8
CC(C)c1cc(N2C[C@H]3CCCN[C@H]3C2)nc(N)n1 [Example 20, (R,R)-4-Isopropyl-6-(cis-octahydro-pyrrolo[3,4-b]pyridin-6-yl)-pyrimidin-2-ylamine] | 18
Cc1cc(N2CCNCC2)nc(N)n1 [Example 21, 4-Methyl-6-piperazin-1-yl-pyrimidin-2-ylamine] | 29
Cc1cc(N2CCN(C)CC2)nc(N)n1 [Example 22, 4-Methyl-6-(4-methyl-piperazin-1-yl)-pyrimidin-2-ylamine] | 18
CN[C@@H]1CCN(c2cc(C)nc(N)n2)C1 [Example 23, (R)-4-Methyl-6-(3-methylamino-pyrrolidin-1-yl)-pyrimidin-2-ylamine] | 77
Cc1cc(N2CC3CCCNC3C2)nc(N)n1 (stereo not drawn) [Example 24, 4-Methyl-6-(cis-octahydro-pyrrolo[3,4-b]pyridin-6-yl)-pyrimidin-2-ylamine] | 49
Cc1nc(N)nc(N2CCNCC2)c1C [Example 25, 4,5-Dimethyl-6-piperazin-1-yl-pyrimidin-2-ylamine] | 286
Cc1nc(N)nc(N2CCN(C)CC2)c1C [Example 26, 4,5-Dimethyl-6-(4-methyl-piperazin-1-yl)-pyrimidin-2-ylamine] | 177
Cc1nc(N)nc(N2CC[C@@H](N)C2)c1C [Example 27, (R)-4-(3-Amino-pyrrolidin-1-yl)-5,6-dimethyl-pyrimidin-2-ylamine] | > 10000
CN[C@@H]1CCN(c2nc(N)nc(C)c2C)C1 [Example 28, (R)-4,5-Dimethyl-6-(3-methylamino-pyrrolidin-1-yl)-pyrimidin-2-ylamine] | 357
Cc1nc(N)nc(N2CC3CCNC3C2)c1C (stereo not drawn) [Example 29, 4-(cis-Hexahydro-pyrrolo[3,4-b]pyrrol-5-yl)-5,6-dimethyl-pyrimidin-2-ylamine] | > 10000
Cc1nc(N)nc(N2C[C@H]3CN(C)C[C@H]3C2)c1C [Example 30, 4,5-Dimethyl-6-(cis-5-methyl-hexahydro-pyrrolo[3,4-c]pyrrol-2-yl)-pyrimidin-2-ylamine] | 530
Cc1nc(N)nc(N2CC3CCCNC3C2)c1C (stereo not drawn) [Example 31, 4,5-Dimethyl-6-(cis-octahydro-pyrrolo[3,4-b]pyridin-6-yl)-pyrimidin-2-ylamine] | 249

same assay, conditions: Table 2; [3H] histamine competition binding, membranes of SK-N-MC cells transfected with human H4 receptor; average of results

Compound | Ki [nM]
Nc1nc(C2CCCC2)cc(N2CCC3(CCCN3)C2)n1 (racemic) [Example 84, 4-Cyclopentyl-6-(cis-1,7-diaza-spiro[4.4]non-7-yl)-pyrimidin-2-ylamine] | 11
Nc1nc(C2CCCC2)cc(N2CC3NCCOC3C2)n1 (single isomer, unassigned) [Example 86, 4-Cyclopentyl-6-(trans-hexahydro-pyrrolo[3,4-b][1,4]oxazin-6-yl)-pyrimidin-2-ylamine] | 56
Nc1nc(C2CCCC2)cc(N2CC3NCCOC3C2)n1 (single isomer, unassigned) [Example 88, 4-Cyclopentyl-6-(cis-hexahydro-pyrrolo[3,4-b][1,4]oxazin-6-yl)-pyrimidin-2-ylamine] | 520
CC(C)c1cc(N2CC3NCCOC3C2)nc(N)n1 (single isomer, unassigned) [Example 93, 4-(cis-Hexahydro-pyrrolo[3,4-b][1,4]oxazin-6-yl)-6-isopropyl-pyrimidin-2-ylamine] | 481
CC(C)c1cc(N2CC3NCCOC3C2)nc(N)n1 (single isomer, unassigned) [Example 94, 4-(trans-Hexahydro-pyrrolo[3,4-b][1,4]oxazin-6-yl)-6-isopropyl-pyrimidin-2-ylamine] | 497
CN[C@@H]1CCN(c2cc(C3CC3c3ccccc3)nc(N)n2)C1 (single isomer, unassigned) [Example 255] | 34
CN[C@@H]1CCN(c2cc(C3CC3c3ccccc3)nc(N)n2)C1 (single isomer, unassigned) [Example 256] | 5
Nc1nc(C2CCCC2)cc(N2CCC3(CCCN3)C2)n1 (single isomer, unassigned) [Example 257, 4-Cyclopentyl-6-(cis-1,7-diaza-spiro[4.4]non-7-yl)-pyrimidin-2-ylamine] | 31
Nc1nc(C2CCCC2)cc(N2CCC3(CCCN3)C2)n1 (single isomer, unassigned) [Example 258, 4-Cyclopentyl-6-(cis-1,7-diaza-spiro[4.4]non-7-yl)-pyrimidin-2-ylamine] | 34
Nc1nc(C2CCOC2)cc(N2CCNCC2)n1 (single isomer, unassigned; (+)) [Example 194, (+)-4-piperazin-1-yl-6-(tetrahydro-furan-3-yl)-pyrimidin-2-ylamine] | 49
Nc1nc(C2CCOC2)cc(N2CCNCC2)n1 (single isomer, unassigned; (-)) [Example 193, (−)-4-piperazin-1-yl-6-(tetrahydro-furan-3-yl)-pyrimidin-2-ylamine] | 31
Nc1nc(C2CC2c2ccccc2)cc(N2CC[C@@H](N)C2)n1 (stereo in doubt) [Example 157, (R)-4-(3-Amino-pyrrolidin-1-yl)-6-(trans-2-phenyl-cyclopropyl)-pyrimidin-2-ylamine] | 29
CN[C@@H]1CCN(c2cc(C3CC3c3ccccc3)nc(N)n2)C1 (stereo in doubt) [Example 160, (R)-4-(3-Methylamino-pyrrolidin-1-yl)-6-(trans-2-phenyl-cyclopropyl)-pyrimidin-2-ylamine] | 3
COCc1cc(N2CCCC(N)C2)nc(N)n1 (stereo in doubt) [Example 225, (R)-4-(3-Amino-piperidin-1-yl)-6-methoxymethyl-pyrimidin-2-ylamine] | 464
